Results: paper PMC9964244, “Effects of Dimerization, Dendrimerization, and Chirality in p-BthTX-I Peptide Analogs on the Antibacterial Activity and Enzymatic Inhibition of the SARS-CoV-2 PL^pro Protein” (Pharmaceutics, 2023)
≈ marks a conversion by molar mass, not a printed value. Where “and” joins values, the source holds several entries; their conditions need not be identical. Equal values may be shown once. Read-outs that look alike come from different tables or passages of the source. Bridge positions count the residues as written; N and C are the ends. Square brackets hold non-standard residues; d marks the D form. Ends that are not written are not given here. Peptide text beside a SMILES is read from it. I, II: the chains in the order shown.

Columns and labels:
[1] = tested on: S. aureus ATCC 25923; test: MIC/MBC, broth microdilution and subculture on CA-MH agar; type: cell-based, Staphylococcus aureus; parameters: key to Act (antibacterial activity): Bc, bactericidal; Bs, bacteriostatic; conditions: for MIC: broth microdilution; for MIC / MBC: triplicate, mode; for MBC: subculture on CA-MH agar, 37 °C, 24 h
Method: (§1) Bacterial isolates from the American Type Culture Collection (ATCC) were obtained from the Collection of Reference Bacteria on Health Surveillance, Oswaldo Cruz Foundation (FIOCRUZ) after phenotypic and molecular quality control and were registered at SISGEN under the number ADB556B. The minimum inhibitory concentration (MIC) was determined as previously described by Santos-Filho et al., 2021 [17], using the broth microdilution method. The MIC was the lowest concentration that inhibited microbial growth. […] MBC was defined as the lowest peptide concentration with no visible growth on the plate. […] The assay was performed in triplicate, and the values represent the mode of the obtained results.
(§2) Thus, to assess the relevance of the antimicrobial effect of p-Bth analogs, their Minimum Inhibitory Concentration (MIC) and Minimum Bactericidal Concentration (MBC) were analyzed against relevant bacteria. The evaluated strains were the Gram-positives: S. aureus ATCC 25923, S. epidermidis ATCC 35984, E. faecalis ATCC 29212, and E. faecium ATCC […] (Table 1); and the Gram-negatives: K. pneumoniae ATCC 700603, E. coli ATCC 25922, A. baumannii ATCC 19606, and P. aeruginosa ATCC 27853 (Table 2).

[2] = tested on: E. coli ATCC 25922; test: as above; type: cell-based; parameters: key to Act (antibacterial activity): Bc, bactericidal; Bs, bacteriostatic; conditions: for MIC: broth microdilution; for MIC / MBC: triplicate, mode; for MBC: subculture on CA-MH agar, 37 °C, 24 h
Method: as §1, §2

[3] = tested on: E. faecalis ATCC 29212; test: as above; type: cell-based; parameters: key to Act (antibacterial activity): Bc, bactericidal; Bs, bacteriostatic; conditions: for MIC: broth microdilution; for MIC / MBC: triplicate, mode; for MBC: subculture on CA-MH agar, 37 °C, 24 h
Method: as §1, §2

[4] = tested on: S. epidermidis ATCC 35984; test: as above; type: cell-based; parameters: key to Act (antibacterial activity): Bc, bactericidal; Bs, bacteriostatic; conditions: for MIC: broth microdilution; for MIC / MBC: triplicate, mode; for MBC: subculture on CA-MH agar, 37 °C, 24 h
Method: as §1, §2

[5] = tested on: E. faecium ATCC 700221; test: as above; type: cell-based, Enterococcus faecium; parameters: key to Act (antibacterial activity): Bc, bactericidal; Bs, bacteriostatic; conditions: for MIC: broth microdilution; for MIC / MBC: triplicate, mode; for MBC: subculture on CA-MH agar, 37 °C, 24 h
Method: as §1, §2

[6] = tested on: K. pneumoniae ATCC 700603; test: as above; type: cell-based, Klebsiella pneumoniae; parameters: key to Act (antibacterial activity): Bc, bactericidal; Bs, bacteriostatic; conditions: for MIC: broth microdilution; for MIC / MBC: triplicate, mode; for MBC: subculture on CA-MH agar, 37 °C, 24 h
Method: as §1, §2

[7] = tested on: A. baumannii ATCC 19606; test: as above; type: cell-based, Acinetobacter baumannii; parameters: key to Act (antibacterial activity): Bc, bactericidal; Bs, bacteriostatic; conditions: for MIC: broth microdilution; for MIC / MBC: triplicate, mode; for MBC: subculture on CA-MH agar, 37 °C, 24 h
Method: as §1, §2

[8] = tested on: P. aeruginosa ATCC 27853; test: as above; type: cell-based, Pseudomonas aeruginosa; parameters: key to Act (antibacterial activity): Bc, bactericidal; Bs, bacteriostatic; conditions: for MIC: broth microdilution; for MIC / MBC: triplicate, mode; for MBC: subculture on CA-MH agar, 37 °C, 24 h
Method: as §1, §2

[9] = tested on: erythrocytes; test: Hemolysis assay; type: cell-based; conditions: at 512 µg/mL, 1 h, 37 °C, Triton X-100 1% positive control, duplicate
Method: Peptide hemolytic activity was determined as previously described^15. Peptides were incubated with erythrocytes in the range from 512 μg/mL to 0.06 μg/mL for 1 h at 37 °C. Triton X-100 1% was used as a positive control for hemolysis. Assays were performed in duplicate. The Research Ethics Committee approved this project under the number 90291518.4.0000.5426.

[10] = target: T1, SARS-CoV-2 PL^pro (Severe acute respiratory syndrome coronavirus 2, UniProt P0DTD1); test: PL^pro enzymatic inhibition assay; type: biochemical; conditions: PL^pro from SARS-CoV-2; for inhibition at 10 µM: peptide 10 µM; for IC50: two independent experiments
T1 construct: made in house

[11] = target: T1, SARS-CoV-2 PL^pro; conditions: PL^pro from SARS-CoV-2, ref 19 (Freire et al., 2021), cited from earlier work
Method: Table 3 PL^pro activity by peptide analogs of p-BThTX-I at the concentration of 10 μM and IC50 values. Representative concentration–response inhibition curves against PL^pro from SARS-CoV-2 are presented in the Supplementary Material (Figure S7). | column: Inhibition (%) at 10 µM; IC50 μM

[12] = tested on: SARS-CoV-2; conditions: Vero cells; cited from earlier work
From the text: In December 2019, the first case of viral infection with a new coronavirus was reported in China, which was later named severe acute respiratory syndrome coronavirus 2 (SARS-CoV-2), and the disease caused by this was named coronavirus-2019 or COVID-19 by the WHO. This disease has taken on great proportions, causing a pandemic scenario and great global concern. Even with the improvements in disease control, there is still a need for new, specific antiviral therapeutic options. As antimicrobial peptides also have antiviral action, the L-dimer, D-dimer and L-tetramer, in addition to ...

[13] = MBC/MIC ratio >4 suggests bacteriostatic

Compound	MIC [1]	MBC [1]	MIC [2]	MBC [2]	MIC [3]	MBC [3]	MIC [4]	MBC [4]	MIC [5]	MBC [5]	MIC [6]	MBC [6]	MIC [7]	MBC [7]	MIC [8]	MBC [8]	inhibition at 10 µM [10]	IC50 [10]	also measured
I: [dK][dK][dY][dR][dY][dH][dL][dK][dP][dF]KK-NH2 / II: [dK][dK][dY][dR][dY][dH][dL][dK][dP][dF]K / III: [dK][dK][dY][dR][dY][dH][dL][dK][dP][dF] / IV: [dK][dK][dY][dR][dY][dH][dL][dK][dP][dF] (amide I:11-IV:C, I:12-II:C, II:11-III:C) [D-tetramer]	10 µM	64 µg/mL	5 µM	>128 µg/mL	5 µM	32 µg/mL	2 µM	16 µg/mL	2 µM	16 µg/mL	5 µM	32 µg/mL	5 µM	32 µg/mL	5 µM	64 µg/mL	94 ± 3%	2.7 ± 0.5 µM	hemolysis [9]: 28%
CC(C)C[C@@H](NC(=O)[C@@H](Cc1c[nH]cn1)NC(=O)[C@@H](Cc1ccc(O)cc1)NC(=O)[C@@H](CCCNC(=N)N)NC(=O)[C@@H](Cc1ccc(O)cc1)NC(=O)[C@@H](CCCCN)NC(=O)[C@H](N)CCCCN)C(=O)N[C@H](CCCCN)C(=O)N1CCC[C@@H]1C(=O)N[C@H](Cc1ccccc1)C(N)=O [D-monomer] (H-[dK][dK][dY][dR][dY][dH][dL][dK][dP][dF]-NH2)	>371 µM	>512 µg/mL	185 µM (≈ 255 µg/mL)	256 µg/mL (≈ 186 µM)	>371 µM	>512 µg/mL	>371 µM	>512 µg/mL	>371 µM	>512 µg/mL	371 µM (≈ 511 µg/mL)	512 µg/mL (≈ 371 µM)	>371 µM	>512 µg/mL	>371 µM	>512 µg/mL	85 ± 3%	3 ± 1 µM	
I: KKYRYHLKPFKK-NH2 / II: KKYRYHLKPFK / III: KKYRYHLKPF / IV: KKYRYHLKPF (amide I:11-IV:C, I:12-II:C, II:11-III:C) [L-tetramer]	64 μg/mL and 10 µM	256 µg/mL	32 μg/mL and 5 µM	>128 µg/mL	10 µM and 64 μg/mL	128 µg/mL	16 µg/mL	32 µg/mL		32 µg/mL	32 μg/mL and 5 µM	>128 µg/mL	5 µM and 32 μg/mL	64 µg/mL	32 μg/mL and 5 µM	64 µg/mL			Act (antibacterial activity) [1, 13]: Bc; Act (antibacterial activity) [2, 13]: Bs; Act (antibacterial activity) [3, 13]: Bc; Act (antibacterial activity) [4, 13]: Bc; Act (antibacterial activity) [5, 13]: Bc; Act (antibacterial activity) [6, 13]: Bs; Act (antibacterial activity) [7, 13]: Bc; Act (antibacterial activity) [8, 13]: Bc; Inhibition (%) at 10 µM ([11]; peptide 10 µM): 98.40 ± 0.00%; IC50 [11]: 1.4 ± 0.02 µM; percentage inhibition of SARS-CoV-2 infection [12]: 54%
